Patent publication US7662842B2, “Thiazolidinone amides, thiazolidine carboxylic acid amides, and serine amides, including polyamine conjugates thereof, as selective anti-cancer agents” (Ohio State Univesity Research Foundation, priority 2003, dated 2010)

Experiments:
Type in all cases: cell-based
SKMEL-188 melanoma cells = test: Sulforhodamine B assay in melanoma cells, SKMEL-188; settings: SK-MEL-188, 48 h, SRB assay, 48 h incubation; melanoma cell line
SKMEL-188 cells = test: Lactate dehydrogenase release assay; settings: SKMEL-188, 48 hours, FIG. 11A
Protocol: SKMEL-188 melanoma cells were incubated with Compound 4(R) at 60 μM for 48 hours. FIG. 11A is a graph showing the cytotoxicity as measured by LDH release from the cells following treatment. Data is presented as mean±SEM (n=8), *p<0.05, **p<0.005. FIG. 11B is a pair of graphs that show the DNA content, as measured by flow cytometry, of cells that were exposed to control (left) and Compound 4(R) (right).
Lactate Dehydrogenase Release Assay: SKMEL-188 cells were seeded at a density of 5000 cells per well in a 96-well flat-bottom microtiter plate. Media were changed after 12 hours and the testing compound was added at serial dilutions. Media were changed with fresh compound every 24 hours. […] Lactate dehydrogenase (LDH) in supernatants was measured using Cytotox 96 Non-Radioactive Cytotoxicity Assay (Promega, Madison, Wis.). […] At the end of incubation stop solution was added to each well and plate was read at 490 nm. Cytotoxicity of compounds was calculated using the following formula: percent cytotoxicity=experimental LDH release/maximum LDH release Experimental LDH release was calculated by subtraction of absorbance corresponding to media only from absorbance corresponding to control/compound treated cells. Maximum LDH release was calculated by subtraction of absorbance corresponding to media with added lysis solution from absorbance corresponding to cells lysed with lysis solution. […]

[1] = tested on: SKMEL-188 and WM-164 cell lines; test: SRB assay, statements on both melanoma cell lines
Protocol: Louis, Mo.). WM-164 cells (gift of Dr. Meenhard Herlyn, Wistar Inst., Philadelphia, Pa.) and human dermal fibroblasts (Cascade Biologics, Inc., Portland, Oreg.) were cultured in DMEM medium (Cellgro Mediatech, Inc.) supplemented with 5% fetal bovine serum, 1% antibiotic.antimycotic mixture and bovine insulin ([…], Sigma-Aldrich, Inc.). Human dermal fibroblasts were used as a control to examine the effects of compounds on stromal environment. Thus, the effect of the various compounds on melanoma cells versus fibroblasts would document their potential selectivity. Sulforhodamine B Assay: Cells were seeded into 96-well plates at 5000 cells/well. After 12 hours, media were changed and serial dilutions of compounds were added. Cells were incubated with each compound for 48 hours. Fresh media containing the test compound were changed ever 24 hours. Thereafter, total cell protein corresponding to cell numbers (both viable and non-viable cells) were measured using the sulforhodamine B (SRB) assay according to manufacturer's protocol (Sigma-Aldrich, Inc.) (Rubinstein et al., “Comparison of in vitro Anticancer Drug-screening Data Generated with a Tetrazolium Assay Versus a Protein Assay Against a Diverse Panel of Human Tumor Cell Lines,” J. Natl. Cancer Inst. 82:1113-1118 (1990); Dothager et al., “Synthesis and Identification of Small Molecules that Potently Induce Apoptosis in Melanoma Cells Through GI Cell Cycle Arrest,” J. Am. Chem. Soc. 127:8686-8696 (2005), each of which is hereby incorporated by reference in its entirety). Briefly, cells were fixed with trichloracetic acid, washed and incubated with sulforhodamine B for 30 minutes. After another wash, dye incorporated into the cells was solubilized and measured using a plate reader at 565 nm. Statistical Analysis: Data is presented as mean±SEM (n=6-8). […] Statistical analyses were performed with Student's t-test (*p<0.05; **p<0.005). […] DTIC and Taxol were assayed in the same way for comparison and served as internal quality controls in the different batches of assay. For comparison, the activities of 5R and 5S were measured.

IC50 (SKMEL-188 melanoma cells): 570 nM | IC50 ([1]; 48 h, read-out: IC50 against both melanoma cell lines): ~500 nM
SMILES: CCCCCCCCCCCCCCNC(=O)[C@@H]1CSC(c2ccccc2)N1.Cl (mixture of isomers) [Compound 4, (2RS, 4R)-2-Phenylthiazolidine-4-carboxylic acid tetradecylamide Hydrochloride]
LDH released to cellular environment (SKMEL-188 cells): dramatic does-dependent increase of LDH released | Selectivity against both neoplastic cell lines (versus fibroblasts) ([1]; melanoma cells versus fibroblasts): over 10 fold
